Reference: patent publication US20110054188A1, “NEAR INFRARED FLUORESCENT IMAGING AGENT” (FUJIFILM Corporation, priority 2009, published 2011)

Experiments:
Format in all cases: in vitro ADME
Conditions in all cases: 5 μM, equilibrium dialysis 4 hours at 37° C.
plasma protein [1] = test: Plasma protein binding rate test by equilibrium dialysis method, dog plasma
Method: (§1) Plasma protein binding rates of the compounds were determined by equilibrium dialysis method (W. Lindner et al, J. Chromatography, 1996, 677, 1-28). Each test compound was dissolved in distilled water at concentration of 200 μM. The solution was added to the plasma of mouse, dog, rabbit, monkey and human respectively, at the amount to obtain the final concentration of 5 μM. This solution (300 μL) and PBS solution (500 μL) were added to each dialysis cell of equilibrium dialysis unit RED device (Pierce Biotechnology), and the cells were shaken at 100 rpm at 37° C. After 4 hours, samples of plasma and the buffer were collected, and the fluorescence intensity of each was measured by EnVision ([…]). After the concentrations were calculated from a calibration curve, the concentrations (%) of free test compound in plasma were determined.

plasma protein [2] = test: Plasma protein binding rate test by equilibrium dialysis method, rabbit plasma
Method: as §1

plasma protein [3] = test: Plasma protein binding rate test by equilibrium dialysis method, monkey plasma
Method: as §1

plasma protein [4] = test: Plasma protein binding rate test by equilibrium dialysis method, mouse plasma
Method: as §1

plasma protein [5] = test: Plasma protein binding rate test by equilibrium dialysis method, human plasma
Method: as §1

SMILES	Plasma protein binding rate (%) dog (plasma protein [1])	Plasma protein binding rate (%) rabbit (plasma protein [2])	Plasma protein binding rate (%) monkey (plasma protein [3])	Plasma protein binding rate (%) mouse (plasma protein [4])	Plasma protein binding rate (%) human (plasma protein [5])
CC1(C)C(/C=C/C=C/C=C/C=C2\N(CC(=O)O)c3ccc(S(=O)(=O)[O-])cc3C2(C)C)=[N+](CC(=O)O)c2ccc(S(=O)(=O)[O-])cc21.[Na+] [Compound 4]	50%	67%	71%	57%	74%
CC1(C)C(/C=C/C=C/C=C/C=C2/N(CCCCC(=O)O)c3ccc(S(=O)(=O)O)cc3C2(C)C)=[N+](CCCCC(=O)O)c2ccc(S(=O)(=O)O)cc21.[Na+].[Na+] [Compound 6]	59%	88%	79%		88%
CC1(C)C(=CC=CC=CC=CC2=[N+](CCP(=O)([O-])[O-])c3ccc(S(=O)(=O)[O-])cc3C2(C)C)N(CCP(=O)([O-])[O-])c2ccc(S(=O)(=O)[O-])cc21.[Na+].[Na+].[Na+].[Na+].[Na+] [Compound 9]	50%	61%	67%	46%	56%
CC1(C)C(/C=C/C=C/C=C/C=C2/N(CCCP(=O)(O)O)c3ccc(S(=O)(=O)O)cc3C2(C)C)=[N+](CCCP(=O)(O)O)c2ccc(S(=O)(=O)O)cc21.[Na+].[Na+].[Na+].[Na+].[Na+].[Na+] [Compound 10]	52%			53%	
CC1(C)C(/C=C/C=C(/C=C/C=C2\N(CCP(=O)([O-])[O-])c3ccc(S(=O)(=O)[O-])cc3C2(C)C)c2ccccc2)=[N+](CCP(=O)([O-])[O-])c2ccc(S(=O)(=O)[O-])cc21.[Na+].[Na+].[Na+].[Na+].[Na+] [Compound 11]	83%	98%	97%	91%	98%
CC1(C)C(/C=C/C=C(/C=C/C=C2\N(CCCP(=O)([O-])[O-])c3ccc(S(=O)(=O)[O-])cc3C2(C)C)c2ccccc2)=[N+](CCCP(=O)([O-])[O-])c2ccc(S(=O)(=O)[O-])cc21.[Na+].[Na+].[Na+].[Na+].[Na+] [Compound 12]	82%	95%	93%	91%	95%
CC1(C)C(/C=C/C=C/C=C/C=C2/N(CCC(=O)[O-])c3ccc(P(=O)([O-])[O-])cc3C2(C)C)=[N+](CCC(=O)[O-])c2ccc(P(=O)([O-])[O-])cc21.[Na+].[Na+].[Na+].[Na+].[Na+] [Compound 13]		87%	90%		89%
CC1(C)C(/C=C/C=C/C=C/C=C2/N(CCS(=O)(=O)[O-])c3ccc(P(=O)([O-])[O-])cc3C2(C)C)=[N+](CCS(=O)(=O)[O-])c2ccc(P(=O)([O-])[O-])cc21.[Na+].[Na+].[Na+].[Na+].[Na+] [Compound 14]	71%	87%	95%		94%
CC1(C)C(/C=C/C=C(/C=C/C=C2\N(CCS(=O)(=O)[O-])c3ccc(P(=O)([O-])[O-])cc3C2(C)C)c2ccccc2)=[N+](CCS(=O)(=O)[O-])c2ccc(P(=O)([O-])[O-])cc21.[Na+].[Na+].[Na+].[Na+].[Na+] [Compound 15]		94%	96%		93%
CC1(C)C(/C=C/C=C(/C=C/C=C2\N(CCC(=O)[O-])c3ccc(P(=O)([O-])[O-])cc3C2(C)C)c2ccccc2)=[N+](CCC(=O)[O-])c2ccc(P(=O)([O-])[O-])cc21.[Na+].[Na+].[Na+].[Na+].[Na+] [Compound 16]	77%	95%	92%	77%	95%
CC(/C=C/C=C1\N(CCC(=O)[O-])c2ccc(P(=O)([O-])[O-])cc2C1(C)C)=C\C=C\C1=[N+](CCC(=O)[O-])c2ccc(P(=O)([O-])[O-])cc2C1(C)C.[Na+].[Na+].[Na+].[Na+].[Na+] [Compound 17]	59%	79%	91%	63%	93%
CC(/C=C/C=C1\N(CCS(=O)(=O)[O-])c2ccc(P(=O)([O-])[O-])cc2C1(C)C)=C\C=C\C1=[N+](CCS(=O)(=O)[O-])c2ccc(P(=O)([O-])[O-])cc2C1(C)C.[Na+].[Na+].[Na+].[Na+].[Na+] [Compound 18]		82%	95%	59%	96%
CC1(C)C(/C=C/C=C/C=C/C=C2\N(CCS(=O)(=O)[O-])c3ccc(S(=O)(=O)[O-])cc3C2(C)C)=[N+](CCS(=O)(=O)[O-])c2ccc(S(=O)(=O)[O-])cc21.[Na+].[Na+].[Na+] [Compound A, reference compound]	29%	79%	87%	27%	82%
CC(/C=C/C=C1\N(CCS(=O)(=O)[O-])c2ccc(S(=O)(=O)[O-])cc2C1(C)C)=C\C=C\C1=[N+](CCS(=O)(=O)[O-])c2ccc(S(=O)(=O)[O-])cc2C1(C)C.[Na+].[Na+].[Na+] [Compound B, reference compound]		88%	93%		92%
